According to paper PMC12519282, “Reduction of Negative Charge in Mercaptoacetyl-Based Chelators Influences the Biodistribution of Prostate-Specific Membrane Antigen-Targeting Pseudopeptides Labeled with Technetium-99m” (ACS Pharmacology & Translational Science, 2025):
Like-named read-outs stand apart in the source and are kept apart here. Marks after values point to notes of the source that are not given here.

Key:
[1] = format: in vitro ADME, murine; conditions: 1 h
Procedure: (§1) To evaluate the label’s stability, 10 μL (0.25 μg) of radiolabeled conjugates was incubated with 300× molar excess of cysteine or with PBS for 1 h at room temperature. The test was run in triplicate. The release of free technetium-99m was controlled by using iTLC and radio-HPLC analysis. The stability in serum was analyzed by mixing the radioconjugates (0.25 μg in 10 μL) with murine serum or PBS (40 μL) as a control. The samples were incubated for 1 h at 37 °C and analyzed by iTLC. The experiment was performed in triplicate. The octanol–water distribution coefficient (Log D) was determined experimentally by the addition of 100 pmol of the radiolabeled tracer to an Eppendorf tube containing PBS (500 μL) and n-octanol (500 μL), pH ∼ 7.4. The solution was vortexed and centrifuged, and aliquots (50 μL) from each phase were collected and measured using a gamma counter. The experiment was performed in triplicate.

[2] = system: PC3-pip cells; assay: cellular processing (membrane-bound / internalized activity); format: cell-based; conditions: 2 nM, continuous incubation, after 8 h
Procedure: To evaluate cellular processing of technetium-99m-labeled BQ0500 and BQ0501, PC3-pip cells were incubated with the radiolabeled tracer (2 nM), and at 1, 2, 4, and 8 h of continuous incubation, the membrane-bound and internalized fractions were collected as previously described using 4 M urea solution in 0.2 M glycine buffer (pH 2) to collect membrane-bound fraction and 1 N solution of NaOH to collect the internalized fraction. The activity in the samples was measured, and the percentage of membrane-bound and internalized activity was calculated. The experiments were performed in triplicate.

[3] = system: PC3-pip cells; assay: in vitro binding specificity test; format: cell-based; conditions: 1 h, 37 °C
Procedure: For the in vitro binding specificity test, approximately 8 × 10^5 PC3-pip cells per well were seeded 24 h before the experiment. […] Technetium-99m-labeled tracers were added to each well to reach a concentration of 2 nM. After 1 h of incubation at 37 °C, cells were washed with PBS solution, detached, and collected. Cell-associated activity was measured using a gamma counter and presented as the percentage of added activity.

[4] = system: PC3-pip xenografts; assay: biodistribution and tumor targeting in PC3-pip tumor-bearing mice; format: in vivo
Source text: The injected masses for the in vivo experiments were chosen based on the findings for [^99mTc]-Tc-BQ0413: to study the general biodistribution of radiolabeled tracers in normal mice (NMRI), 40 pmol of tracer was used to avoid blocking of PSMA-mediated uptake in kidneys and salivary glands, to study tumor targeting, 5 nmol of tracer was used to decrease uptake in PSMA-expressing organs.
PSMA-expressing PCa xenografts were implanted in BALB/c nu/nu mice by subcutaneous injection of the PC3-pip cell suspension in PBS (10^7 cells/animal in 100 μL). The average animal weight in the experiment was 18 ± 2 g. The average tumor weight was 0.4 ± 0.2 g. For in vivo specificity control, 10^7 cells/animal PSMA-negative PC-3 cells were implanted. The average animal weight was 18 ± 1 g. The average tumor weight was 0.1 ± 0.1 g. Four mice per data point were used in the in vivo experiments.
For tumor-bearing mice, each mouse was intravenously injected with 5 nmol of [^99mTc]-Tc-BQ0413, [^99mTc]-Tc-BQ0500, and [^99mTc]-Tc-BQ0501 (60 kBq; the mass of the injected compound was adjusted with an unlabeled tracer). The mice were euthanized after lethal intraperitoneal injection of ketamine/xylazine, followed by exsanguination 1 and 3 h pi, similarly to the procedure described above.

[5] = target: T1, PSMA (Homo sapiens, UniProt Q04609); assay: binding kinetics in real time on living PC3-pip cells (LigandTracer Yellow)
T1 construct: expressed in transfected cells; host or cells: PC3-pip (PSMA-transfected PC-3 prostate carcinoma cells), from Prof; Martin G. Pomper, Johns Hopkins University
Procedure: The binding kinetics of technetium-99m-labeled BQ0413, BQ0500, and BQ0501 were determined in PC3-pip cells in real-time using LigandTracer Yellow (Ridgeview Instruments AB, Uppsala, Sweden). The activity binding was recorded with 5 nM radiolabeled tracers for 150 min. After the binding kinetics were measured, the medium containing the labeled tracer was replaced with fresh medium, and the dissociation was monitored over 7 h. The association rate (k a) and the dissociation rate (k d) were computed using a 1:2 kinetic binding model in TraceDrawer software (Ridgeview Instruments AB, Uppsala, Sweden), and the equilibrium dissociation constant K D was calculated.

[6] = physchem; format: physicochemical; conditions: pH 7.4
Procedure: as §1

[7] = PC3-pip tumor-bearing mice, 5 nmol/mouse iv, 1 h pi
[8] = PC3-pip tumor-bearing mice, 5 nmol/mouse iv, 3 h pi
[9] = PC3-pip tumor-bearing mice, 5 nmol/mouse iv, 3 h pi, listed as [99mTc]Tc-BQ0501

T1 sequence (Q04609 whole entry): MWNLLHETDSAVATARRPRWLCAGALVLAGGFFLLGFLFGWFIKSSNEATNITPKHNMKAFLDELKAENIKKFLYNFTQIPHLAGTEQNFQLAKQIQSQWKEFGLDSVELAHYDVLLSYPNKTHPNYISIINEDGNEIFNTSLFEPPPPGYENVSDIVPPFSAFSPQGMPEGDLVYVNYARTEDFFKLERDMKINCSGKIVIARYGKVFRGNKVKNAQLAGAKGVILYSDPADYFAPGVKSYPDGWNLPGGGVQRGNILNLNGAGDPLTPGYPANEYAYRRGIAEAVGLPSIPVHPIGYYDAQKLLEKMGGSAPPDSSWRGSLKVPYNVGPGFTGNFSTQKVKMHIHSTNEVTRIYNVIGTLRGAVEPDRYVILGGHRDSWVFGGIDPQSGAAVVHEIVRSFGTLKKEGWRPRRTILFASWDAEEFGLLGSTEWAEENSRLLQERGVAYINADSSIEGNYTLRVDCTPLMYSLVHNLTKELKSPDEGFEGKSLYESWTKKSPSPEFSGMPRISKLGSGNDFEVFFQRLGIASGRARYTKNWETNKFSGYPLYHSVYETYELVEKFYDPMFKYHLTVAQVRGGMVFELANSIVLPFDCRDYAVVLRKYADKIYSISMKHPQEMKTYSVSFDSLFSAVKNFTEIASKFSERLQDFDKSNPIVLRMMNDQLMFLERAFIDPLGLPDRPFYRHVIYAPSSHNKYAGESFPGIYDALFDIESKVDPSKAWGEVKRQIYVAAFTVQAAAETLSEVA

SMILES: CC(=O)NC(CCCCNC(=O)CNC(=O)C(CO)NC(=O)C(CO)NC(=O)C(CO)NC(=O)CS)C(=O)NCCCCCCCC(=O)NC(Cc1ccc(O)cc1)C(=O)NC(Cc1ccc2ccccc2c1)C(=O)NCCCCC(NC(=O)NC(CCC(=O)O)C(=O)O)C(=O)O (centres unmarked) [[^99mTc]Tc-BQ0501, metal not drawn]
- intact tracer in PBS ([1]; PBS control, 37 °C, n = 3): 97.4 ± 0.9%
- intact tracer in murine serum ([1]; mouse, 5 µg/mL): 98.7 ± 0.6%
- maximum of internalized activity [2]: 42–43 % of cell-associated activity
- activity uptake by PC3-pip cells ([3]; 2 nM tracer): 62 ± 7 % of added activity
- activity uptake by PC3-pip cells after presaturation with PSMA-11 ([3]; 250-fold excess of nonlabeled PSMA-11, 2 nM tracer): significantly (p < 0.0001) decreased
- activity in carcass [4, 7]: 8 ± 2 ^b %IA/sample
- activity in intestines with content [4, 7]: 9 ± 1 ^b ^e %IA/sample
- activity uptake in blood [4, 7]: 1.6 ± 0.5 ^b %IA/g
- activity uptake in bone [4, 7]: 0.4 ± 0.1 ^b ^e %IA/g
- activity uptake in kidney [4, 7]: 21 ± 6 ^b %IA/g
- activity uptake in liver [4, 7]: 1.8 ± 0.7 ^b %IA/g
- activity uptake in lung [4, 7]: 1.6 ± 0.4 ^b %IA/g
- activity uptake in muscle [4, 7]: 0.3 ± 0.1 ^b %IA/g
- activity uptake in pancreas [4, 7]: 0.45 ± 0.05 ^b %IA/g
- activity uptake in salivary gland [4, 7]: 0.6 ± 0.2 ^b ^, ^e %IA/g
- activity uptake in small intestines [4, 7]: 1.4 ± 0.6 ^b ^e %IA/g
- activity uptake in spleen [4, 7]: 2.4 ± 0.5 ^b %IA/g
- activity uptake in stomach [4, 7]: 0.6 ± 0.2 ^b ^e %IA/g
- activity uptake in tumor [4, 7]: 27 ± 7 %IA/g
- tumor-to-blood ratio [4, 7]: 19 ± 8 ^b
- tumor-to-bone ratio [4, 7]: 62 ± 18 ^b ^, ^e
- tumor-to-kidney ratio [4, 7]: 1.3 ± 0.5 ^b
- tumor-to-liver ratio [4, 7]: 17 ± 7 ^b
- tumor-to-lung ratio [4, 7]: 17 ± 6 ^b
- tumor-to-muscle ratio [4, 7]: 86 ± 34 ^b
- tumor-to-pancreas ratio [4, 7]: 62 ± 24 ^b
- tumor-to-salivary gland ratio [4, 7]: 47 ± 19 ^b ^, ^e
- tumor-to-small intestines ratio [4, 7]: 22 ± 11 ^b
- tumor-to-spleen ratio [4, 7]: 12 ± 5 ^b
- tumor-to-stomach ratio [4, 7]: 46 ± 18 ^b ^, ^e
- activity in carcass [4, 8]: 3 ± 1 %IA/sample
- activity in intestines with content [4, 8]: 11.0 ± 0.5 ^e %IA/sample
- activity uptake in blood [4, 8]: 0.14 ± 0.07 %IA/g
- activity uptake in bone [4, 8]: 0.07 ± 0.03 ^e %IA/g
- activity uptake in kidney [4, 8]: 4 ± 2 ^e %IA/g
- activity uptake in liver [4, 8]: 0.18 ± 0.06 %IA/g
- activity uptake in lung [4, 8]: 0.21 ± 0.07 %IA/g
- activity uptake in muscle [4, 8]: 0.08 ± 0.04 %IA/g
- activity uptake in pancreas [4, 8]: 0.1 ± 0.1 %IA/g
- activity uptake in salivary gland [4, 8]: 0.14 ± 0.06 ^e %IA/g
- activity uptake in small intestines [4, 8]: 0.17 ± 0.03 %IA/g
- activity uptake in spleen [4, 8]: 0.3 ± 0.2 %IA/g
- activity uptake in stomach [4, 8]: 0.14 ± 0.06 %IA/g
- tumor-to-bone ratio [4, 8]: 515 ± 113 ^e
- tumor-to-kidney ratio [4, 8]: 10 ± 2 ^e
- tumor-to-liver ratio [4, 8]: 222 ± 89 ^e
- tumor-to-lung ratio [4, 8]: 178 ± 61 ^e
- tumor-to-muscle ratio [4, 8]: 504 ± 195
- tumor-to-pancreas ratio [4, 8]: 463 ± 135 ^e
- tumor-to-salivary gland ratio [4, 8]: 302 ± 146 ^e
- tumor-to-small intestines ratio [4, 8]: 209 ± 46
- tumor-to-spleen ratio [4, 8]: 121 ± 47 ^e
- tumor-to-stomach ratio [4, 8]: 287 ± 102 ^e
- activity in carcass [4, 9]: 3±1 %IA/sample
- activity in intestines with content [4, 9]: 11.0±0.5 %IA/sample
- activity uptake in blood [4, 9]: 0.14±0.07 %IA/g
- activity uptake in bone [4, 9]: 0.07±0.03 %IA/g
- activity uptake in kidney [4, 9]: 4±2 %IA/g
- activity uptake in liver [4, 9]: 0.18±0.06 %IA/g
- activity uptake in lung [4, 9]: 0.21±0.07 %IA/g
- activity uptake in muscle [4, 9]: 0.08±0.04 %IA/g
- activity uptake in pancreas [4, 9]: 0.1±0.1 %IA/g
- activity uptake in salivary gland [4, 9]: 0.14±0.06 %IA/g
- activity uptake in small intestines [4, 9]: 0.17±0.03 %IA/g
- activity uptake in spleen [4, 9]: 0.3±0.2 %IA/g
- activity uptake in stomach [4, 9]: 0.14±0.06 %IA/g
- activity uptake in tumor [4, 9]: 35±4 %IA/g
- excretion pathway ([4]; PC3-pip xenografts): predominantly renal
- B max1 (binding maximum) ([5]; 5 nM tracer, 1:2 model (1:1 for BQ0413)): 492 CPS
- Kd ([5]; 5 nM tracer, 1:2 model (1:1 for BQ0413), read-out: K D1): 0.474 nM
- kon ([5]; 5 nM tracer, 1:2 model (1:1 for BQ0413), read-out: k a1 (association rate)): 27000 M⁻¹ s⁻¹
- koff ([5]; 5 nM tracer, 1:2 model (1:1 for BQ0413), read-out: k d1 (dissociation rate)): 1.2e-05 s⁻¹
- B max2 (binding maximum) ([5]; 5 nM tracer, 1:2 model, second interaction): 272 CPS
- Kd ([5]; 5 nM tracer, 1:2 model, second interaction, read-out: K D2): 3.6 nM
- kon ([5]; 5 nM tracer, 1:2 model, second interaction, read-out: k a2 (association rate)): 49000 M⁻¹ s⁻¹
- koff ([5]; 5 nM tracer, 1:2 model, second interaction, read-out: k d2 (dissociation rate)): 0.00016 s⁻¹
- affinity compromised in comparison with [99mTc]Tc-BQ0413 ([5]; PC3-pip cells): 3–5 fold
- Kd ([5]; as rounded in comparison table, read-out: K D1): 0.5 nM
- Kd ([5]; as rounded in comparison table, read-out: K D2): 3.6 nM
- logD [6]: -2.4 ± 0.1
